Measured values from patent publication US11453671B2, “Pyrazolopyrimidine inhibitors of JAK kinases and uses thereof” (Genentech, Inc., priority 2020, dated 2022).
pIC50: −log10 of the molar value. Like-named read-outs stand apart in the source and are kept apart here.

What was measured:
[1] = test system: JAK1 pathway: P-STAT6 in TF-1 human erythroleukemia cells + IL-13; test: P-STAT6 TF-1+Interleukin-13 (IL-13) assay; format: cell-based; settings: IL-13 stimulation, read-out: Cellular JAK1 PSTAT6 TF-1 + IL13 IC50
Method: (§1) TF-1 human erythroleukemia cells (ATCC®; Manassas, Va.; Catalog No. CRL-2003™) were grown in Roswell Park Memorial Institute (RPMI) medium supplemented with 10% heat-inactivated fetal bovine serum (FBS), 2 ng/mL granulocyte-macrophage colony-stimulating factor, 1×non-essential amino acids (NEAA), and 1 mM sodium pyruvate. The day before the assay, the cultures were transferred to Opti-MEM™, 1×NEAA, 1 mM sodium pyruvate, and 0.5% charcoal-stripped FBS (starve medium). Inhibitor stock solutions (5 mM in DMSO) were serially diluted 1:2 in DMSO to generate a 10-point concentration titration (at 500×test concentration), which was further diluted by a 50-fold dilution in Assay Medium (RPMI containing 1×NEAA and 1 mM sodium pyruvate) to generate a 10×concentration titration (in 2% DMSO). The cells (300,000 cells/well in 35 μL of Assay Medium) were seeded in 384-well Greiner plates. Diluted inhibitor at 10×concentration (5 μL) was added to the cells and the plates were incubated for 30 minutes at 37° C. in a humidified incubator. Cells were stimulated with the human recombinant cytokine at the respective EC90 concentrations, as previously determined for each individual lot. For the phosphorylated signal transducer and activator of transcription 6 (P-STAT6) TF-1+Interleukin-13 (IL-13) assay, 10 μL of 250 ng/mL IL-13 (R&D Systems; Minneapolis, Minn.) was added to the cells, which were then incubated for 10 minutes at 37° C. For the P-STAT5 TF-1+Erythropoietin (EPO) assay, 10 μL of 110 IU/mL EPO (Gibco Life Technologies, Catalog No. PHC2054) was added to the cells, which were then incubated for 30 min at 37° C. For both assays, the incubation was followed by addition to the cells of 5 μL of ice-cold 10× cell lysis buffer (Cell Signaling Technologies; Danvers, Mass.; Catalog No. 9803S) containing 1 mM phenylmethylsulfonyl fluoride (PMSF). Assay plates were frozen at −80° C. for a minimum of 1 horn. In the IL-13 assay, P-STAT6 was measured by coating goat anti-rabbit (GAR) plates (Meso Scale Discovery [MSD]; Rockville, Md.; Catalog No. MSD L21RA-1) with rabbit anti-human total STAT6 antibody (Cell Signaling Technologies; Catalog No. 9362S), incubating the cell lysates in the coated plates overnight at 4° C., and then detecting with mouse anti-P-STAT6 (Tyr641) Clone 16E12 antibody (MilliporeSigma; Burlington, Mass.; Catalog No. 05-590, custom labeled by MSD with SULFO-tag) using standard MSD plate processing, washing, and detection protocols. In the EPO assay, P-STAT5 was detected using the phospho-STAT5a,b Whole Cell Lysate Kit (MSD; Catalog No. K150IGD-1). The electrochemiluminescence (ECL) signal of wells was read on the MESO SECTOR S600 (MSD) reader.

[2] = Cell cytotoxicity assay HEK-293T (CellTiter-Glo, 72 hours); format: cell-based; settings: human, HEK-293T cells, read-out: Cytotox K-293 EC50
From the text: (§2) Cytotoxicity assays. Hepatocyte toxicity, general cytotoxicity or cytotoxicity of unknown mechanism is an undesirable feature for a potential drug, including inhaled drugs. It may be of benefit for an inhaled JAK1 or JAK1/JAK2 inhibitor to have low intrinsic cytotoxicity against various cell types. Typical cell types used to assess cytotoxicity include both primary cells such as human hepatocytes, and proliferating established cell lines such as Jurkat and HEK-293. […] Methods of measuring cytotoxicity are known in the art. In some embodiments, compounds described herein were tested as follows:
(§3) (a) Jurkat and HEK293T cells were maintained at a sub confluent density in T175 flasks. Cells were plated at 450 cells/45 μl medium in Greiner 384 well black/clear tissue culture treated plates. (Greiner Catalog #781091). After dispensing cells, plates were equilibrated at room temperature for 30 minutes. After 30 minutes at room temperature, cells were incubated overnight at 37° C. in a CO2 and humidity controlled incubator. The following day, cells were treated with compounds diluted in 100% DMSO (final DMSO concentration on cells=0.5%) with a 10 point dose-response curve with a top concentration of 50 μM. Cells and compounds were then incubated for 72 hours overnight at 37° C. in a CO2 and humidity controlled incubator. After 72 hours of incubation, viability was measured using CellTiterGlo® (Promega Catalog #G7572) to all wells. After incubation at room temperature for 20 minutes, plates were read on EnVision™ (Perkin Elmer Life Sciences) using luminescence mode;
(§4) A549 (ATCC® CCL-185™), Jurkat clone E6-1 (ATCC® TIB-152™) and HEK-293T (ATCC® CRL-1573™) cells maintained at a sub-confluent density in T175 flasks were used. Cells in exponential growth phase were plated (450 cells in 45 μL of medium) in Greiner 384-well black/clear tissue culture treated plates (Greiner Catalog No. 781091). After dispensing cells, plates were allowed to equilibrate at room temperature for 30 minutes, after which time the cell plates were placed overnight in a 37° C. CO2 and humidity-controlled incubator. The following day, cells were treated with test agent diluted in 100% DMSO (0.5% final DMSO concentration on cells) with a 10-point titration and a top concentration of 50 μM. Cells and compounds were then incubated for 72 hours in a 37° C. CO2 and humidity-controlled incubator, after which time cell viability was measured by adding CellTiter-Glo® (Promega G7572) reagent to all wells. Plates were incubated at room temperature for 20 minutes and then the well luminescence was read on an EnVision plate reader (Perkin Elmer Life Sciences).

[3] = Cell cytotoxicity assay A549 (CellTiter-Glo, 72 hours); format: cell-based; settings: human, A549 cells, read-out: Cytotox A549 EC50
Method: as §4

[4] = target: Recombinant human JAK2 kinase domain protein (Residues 812-1132) (Homo sapiens, UniProt O60674); test: JAK2 biochemical assay (microfluidic mobility shift, peptide phosphorylation); settings: Enzyme JAK2 Ki (nM), 25 μM ATP, 0.2 nM total JAK2
Method: JAK1 and JAK2 Biochemical Assays
The in vitro biochemical assays quantify JAK-catalyzed phosphorylation of a synthetic peptide, as detected using a LabChip® EZ Reader II microfluidic mobility shift instrument (PerkinElmer; Waltham, Mass.). […] Y-1B is fluorescently labeled on the N-terminus with 5-FAM (5-carboxyfluorescein) and contains a single tyrosine residue (Y) that can be phosphorylated by JAK activity. The substrate peptide stock is prepared in DMSO at 5 mM.
In each titration experiment, test compound was tested in duplicate at each of the twelve concentrations. Blank reactions contained ATP, peptide, and DMSO, but no JAK or test compound, whereas uninhibited control reactions contained ATP, peptide, JAK, and DMSO, but no test compound.
Peptide plus ATP mixture (24 μL) was added to 1 μL of test compound in DMSO (or DMSO alone). The reactions were initiated by adding 25 μL of JAK enzyme to the inhibitor/peptide/ATP mixture before thoroughly mixing the resultant solution. Reactions were incubated at room temperature (22° C.-23° C.) in a final volume of 50 μL per well in 384-well plates.
In each reaction, the residual Y-1B substrate and the phospho-peptide product generated were separated using the EZ Reader II instrument. Electrophoretic separation of molecules of product from molecules of substrate was achieved using downstream and upstream voltages of −500 and −2600 V, respectively, at an operating pressure of −1.3 psi.
The extent (or percent) of conversion of substrate to product was calculated from the corresponding peak heights in the electropherogram using HTS Well Analyzer software, Version 5.2 (PerkinElmer), and the following equation (Equation 1): % conversion=[P÷(S+P)]×100 Equation 1 where S and P represent the peak heights of the substrate and product, respectively. After any baseline signal from blank wells containing no JAK was subtracted from the signal of all test wells, the % conversion data were converted to fractional activity as shown in Equation 2, where vi and vo are the % conversion in the presence and absence of test compound, respectively.

[5] = Cell cytotoxicity assay Jurkat (CellTiter-Glo, 72 hours); format: cell-based; settings: human, Jurkat clone E6-1 cells, read-out: Cytotox Jurkat EC50
From the text: as §2, §3, §4

[6] = test system: JAK2 pathway: P-STAT5 in TF-1 human erythroleukemia cells + EPO; test: P-STAT5 TF-1+Erythropoietin (EPO) assay; format: cell-based; settings: EPO stimulation, read-out: Cellular JAK2 PSTAT5 TF-l + EPO IC50
Method: as §1

[7] = Table 3, 72 hours, top concentration of 50 μM
[8] = Table 4, methyl-desmethyl analog pairs

Chain of Recombinant human JAK2 kinase domain protein (Residues 812-1132) (O60674 812-1132): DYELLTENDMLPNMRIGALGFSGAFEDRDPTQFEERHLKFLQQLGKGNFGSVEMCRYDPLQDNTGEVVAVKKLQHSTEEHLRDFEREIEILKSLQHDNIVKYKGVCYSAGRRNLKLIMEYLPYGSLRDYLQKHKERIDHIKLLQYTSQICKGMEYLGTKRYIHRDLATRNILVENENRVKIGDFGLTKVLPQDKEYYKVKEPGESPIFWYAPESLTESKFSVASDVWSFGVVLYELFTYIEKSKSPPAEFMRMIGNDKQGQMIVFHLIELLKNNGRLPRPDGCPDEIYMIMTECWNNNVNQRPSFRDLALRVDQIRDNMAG

| Structure (SMILES) | pIC50 ([1]; Homo sapiens, TF-1, TF-1 cells) | EC50 at 72 h [2, 7] [µM] | EC50 at 72 h [3, 7] [µM] | Ki [4] [nM] | EC50 at 72 h [5, 7] [µM] | pIC50 ([6]; Homo sapiens, TF-1, TF-1 cells) | pIC50 ([1]; TF-1 cells) | pIC50 ([6]; TF-1 cells) | EC50 at 72 h [2, 8] [µM] | EC50 at 72 h [3, 8] [µM] | EC50 at 72 h [5, 8] [µM] |
| --- | --- | --- | --- | --- | --- | --- | --- | --- | --- | --- | --- |
| CC(CO)S(=O)(=O)c1ccc(OC(F)F)c(-c2nn(C)cc2NC(=O)c2cnn3cccnc23)c1 (single isomer, unassigned) [Example 23, N-[3-[2-(difluoromethoxy)-5-(2-hydroxy-1-methyl-ethyl)sulfonyl-phenyl]-1-methyl-pyrazol-4-yl]pyrazolo[1,5-a]pyrimidine-3-carboxamide] | 7.70 | 11 | 28 | 0.13 | 24 | 7.66 |  |  |  |  |  |
| Cn1cc(NC(=O)c2cnn3cccnc23)c(-c2cc(S(=O)(=O)C3CCCNC3)ccc2OC(F)F)n1 (single isomer, unassigned) [Example 37, N-[3-[2-(difluoromethoxy)-5-(3-piperidylsulfonyl)phenyl]-1-methyl-pyrazol-4-yl]pyrazolo[1,5-a]pyrimidine-3-carboxamide] |  | 31 | ≥ 50 | 0.54 | ≥ 50 |  | 7.29 | 7.42 |  |  |  |
| C[C@H](O)CS(=O)(=O)c1ccc(OC(F)F)c(-c2nn(C)cc2NC(=O)c2cnn3cccnc23)c1 (stereo in doubt) [Example 15, N-[3-[2-(difluoromethoxy)-5-[rac-(2S)-2-hydroxypropyl]sulfonyl-phenyl]-1-methyl-pyrazol-4-yl]pyrazolo[1,5-a]pyrimidine-3-carboxamide] |  | 25 | 25 | 0.16 | 35 |  |  |  |  |  |  |
| CN1CCCC1CCn1cc(S(=O)(=O)c2ccc(OC(F)F)c(-c3nn(C)cc3NC(=O)c3cnn4cccnc34)c2)cn1 (stereo in doubt) [Example 56, N-[3-[2-(difluoromethoxy)-5-[1-[2-[(2R)-1-methylpyrrolidin-2-yl]ethyl]pyrazol-4-yl]sulfonyl-phenyl]-1-methyl-pyrazol-4-yl]pyrazolo[1,5-a]pyrimidine-3-carboxamide] |  | 10 | ≥ 50 | 0.76 | 24 |  |  |  |  |  |  |
| COCCS(=O)(=O)c1ccc(OC(F)F)c(-c2nn(C)cc2NC(=O)c2cnn3cccnc23)c1 [Example 14, N-[3-[2-(difluoromethoxy)-5-(2-methoxyethylsulfonyl)phenyl]-1-methyl-pyrazol-4-yl]pyrazolo[1,5-a]pyrimidine-3-carboxamide] |  | 32 | ≥ 50 |  | ≥ 50 |  |  |  |  |  |  |
| Cn1cc(NC(=O)c2cnn3cccnc23)c(-c2cc(S(=O)(=O)c3ccncc3)ccc2OC(F)F)n1 [Example 16, N-[3-[2-(difluoromethoxy)-5-(4-pyridylsulfonyl)phenyl]-1-methyl-pyrazol-4-yl]pyrazolo[1,5-a]pyrimidine-3-carboxamide] |  | 7.6 | 7.4 | 0.19 | 6.2 |  |  |  |  |  |  |
| Cn1cc(NC(=O)c2cnn3cccnc23)c(-c2cc(S(C)(=O)=O)ccc2OC(F)F)n1 [Example 17, N-[3-[2-(difluoromethoxy)-5-methylsulfonyl-phenyl]-1-methyl-pyrazol-4-yl]pyrazolo[1,5-a]pyrimidine-3-carboxamide] |  | 7.3 | 8.7 | 0.1 | 11 |  |  |  | 7.3 | 8.7 | 11 |
| Cn1cc(NC(=O)c2cnn3cccnc23)c(-c2cc(S(=O)(=O)N3CCC3)ccc2OC(F)F)n1 [Example 21, N-[3-[5-(azetidin-1-ylsulfonyl)-2-(difluoromethoxy)phenyl]-1-methyl-pyrazol-4-yl]pyrazolo[1,5-a]pyrimidine-3-carboxamide] |  | 4.8 | 7.5 | 0.16 | 11 |  |  |  |  |  |  |
| CNS(=O)(=O)c1ccc(OC(F)F)c(-c2nn(C)cc2NC(=O)c2cnn3cccnc23)c1 [Example 26, N-[3-[2-(difluoromethoxy)-5-(methylsulfamoyl)phenyl]-1-methyl-pyrazol-4-yl]pyrazolo[1,5-a]pyrimidine-3-carboxamide] |  | 5.8 | 11 | 0.097 | 12 |  |  |  |  |  |  |
| CN(C)S(=O)(=O)c1ccc(OC(F)F)c(-c2nn(C)cc2NC(=O)c2cnn3cccnc23)c1 [Example 30, N-[3-[2-(difluoromethoxy)-5-(dimethylsulfamoyl)phenyl]-1-methyl-pyrazol-4-yl]pyrazolo[1,5-a]pyrimidine-3-carboxamide] |  | 2.4 | 6.1 | 0.14 | 9.2 |  |  |  |  |  |  |
| Cn1cc(NC(=O)c2cnn3cccnc23)c(-c2cc(S(=O)(=O)CCCO)ccc2OC(F)F)n1 [Example 63, N-[3-[2-(difluoromethoxy)-5-(3-hydroxypropylsulfonyl)phenyl]-1-methyl-pyrazol-4-yl]pyrazolo[1,5-a]pyrimidine-3-carboxamide] |  | 20 | ≥ 50 | 0.28 | 35 |  |  |  |  |  |  |
| CN(CCO)S(=O)(=O)c1ccc(OC(F)F)c(-c2nn(C)cc2NC(=O)c2cnn3cccnc23)c1 [Example 73, N-(3-(2-(difluoromethoxy)-5-(N-(2-hydroxyethyl)-N-methylsulfamoyl)phenyl)-1-methyl-1H-pyrazol-4-yl)pyrazolo[1,5-a]pyrimidine-3-carboxamide] |  | 2.9 | ≥ 50 | 0.21 | 8.4 |  |  |  |  |  |  |
